Assay results reported in ChEMBL document CHEMBL1208746, “3-Cyano-5-fluoro-N-arylbenzamides as negative allosteric modulators of mGlu(5): Identification of easily prepared tool compounds with CNS exposure in rats” (Bioorg Med Chem Lett, 2010).
The source made the active and inactive calls. No cut-off for these calls is given here.

Legend:
[1] = biological target: T1, Metabotropic glutamate receptor 5 (Rattus norvegicus, UniProt P31424); assay: Antagonist activity at rat mGlu5 receptor expressed in HEK293A cells assessed as inhibition of glutamate-induced calcium mobilization; format: functional, cell-based, HEK293-A
[2] = biological target: Metabotropic glutamate receptor 5 (Rattus norvegicus) (UniProt P31424); assay: Antagonist activity at rat mGlu5 receptor expressed in HEK293A cells assessed as inhibition of glutamate-induced calcium mobilization at 30 uM relative to glutamate; format: functional, cell-based; settings: HEK293-A
Chain of Metabotropic glutamate receptor 5 (Rattus norvegicus) (P31424 21-1203 limits assumed): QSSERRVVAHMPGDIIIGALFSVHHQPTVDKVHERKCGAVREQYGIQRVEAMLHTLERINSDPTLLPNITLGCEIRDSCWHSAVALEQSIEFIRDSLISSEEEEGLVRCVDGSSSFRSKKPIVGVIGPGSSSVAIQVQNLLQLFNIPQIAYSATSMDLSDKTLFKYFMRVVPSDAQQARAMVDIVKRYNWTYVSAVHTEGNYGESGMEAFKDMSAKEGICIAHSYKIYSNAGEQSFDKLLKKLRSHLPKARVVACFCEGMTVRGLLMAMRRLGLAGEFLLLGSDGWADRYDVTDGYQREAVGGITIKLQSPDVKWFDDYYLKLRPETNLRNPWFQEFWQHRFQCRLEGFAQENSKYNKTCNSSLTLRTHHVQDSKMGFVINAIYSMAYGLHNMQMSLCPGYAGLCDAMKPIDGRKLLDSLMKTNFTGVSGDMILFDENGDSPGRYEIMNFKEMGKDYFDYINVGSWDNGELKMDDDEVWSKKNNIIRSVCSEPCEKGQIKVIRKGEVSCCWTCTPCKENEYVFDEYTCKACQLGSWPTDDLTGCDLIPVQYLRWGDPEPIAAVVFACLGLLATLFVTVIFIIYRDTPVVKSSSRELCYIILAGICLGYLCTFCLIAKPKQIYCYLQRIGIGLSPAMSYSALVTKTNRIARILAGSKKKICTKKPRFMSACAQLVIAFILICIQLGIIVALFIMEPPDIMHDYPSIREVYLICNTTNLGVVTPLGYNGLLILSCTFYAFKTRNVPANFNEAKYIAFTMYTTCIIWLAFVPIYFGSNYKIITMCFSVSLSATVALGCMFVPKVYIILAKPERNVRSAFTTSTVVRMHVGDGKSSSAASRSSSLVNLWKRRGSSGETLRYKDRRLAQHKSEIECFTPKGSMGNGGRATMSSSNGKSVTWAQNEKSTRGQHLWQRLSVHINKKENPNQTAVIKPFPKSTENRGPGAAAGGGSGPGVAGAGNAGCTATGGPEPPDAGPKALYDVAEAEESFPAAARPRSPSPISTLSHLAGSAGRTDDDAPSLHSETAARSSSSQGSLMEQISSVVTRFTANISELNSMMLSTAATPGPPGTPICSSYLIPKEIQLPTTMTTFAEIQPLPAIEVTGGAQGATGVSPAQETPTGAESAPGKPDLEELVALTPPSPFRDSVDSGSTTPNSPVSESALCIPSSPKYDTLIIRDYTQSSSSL

[3] = Metabolic stability in rat liver microsomes assessed as compound remaining at 1 uM after 15 mins in presence of NADPH; format: ADME, Microsome; settings: read-out: Stability
[4] = biological target: T1, Metabotropic glutamate receptor 5; assay: Displacement of [3H]methoxy-PEPy from rat mGlu5 receptor expressed in HEK293A cells after 60 mins by scintillation counting; format: cell-based, HEK293-A
[5] = biological target: Metabotropic glutamate receptor 1 (Homo sapiens) (UniProt Q13255); assay: Inhibition of mGlu1 receptor at 10 uM
[6] = biological target: Metabotropic glutamate receptor 2 (Homo sapiens) (UniProt Q14416); assay: Inhibition of mGlu2 receptor at 10 uM
Plasma [7] = assay: Protein binding in human plasma by rapid equilibrium dialysis method; format: ADME, cell-free
[8] = Metabolic stability in human liver microsomes assessed as compound remaining at 1 uM after 15 mins in presence of NADPH; format: ADME, Microsome; settings: read-out: Stability
Plasma [9] = assay: Protein binding in rat plasma by rapid equilibrium dialysis method; format: ADME, cell-free
[10] = biological target: Metabotropic glutamate receptor 3 (Homo sapiens) (UniProt Q14832); assay: Inhibition of mGlu3 receptor at 10 uM
Chain of Metabotropic glutamate receptor 3 (Homo sapiens) (Q14832 23-879 limits assumed): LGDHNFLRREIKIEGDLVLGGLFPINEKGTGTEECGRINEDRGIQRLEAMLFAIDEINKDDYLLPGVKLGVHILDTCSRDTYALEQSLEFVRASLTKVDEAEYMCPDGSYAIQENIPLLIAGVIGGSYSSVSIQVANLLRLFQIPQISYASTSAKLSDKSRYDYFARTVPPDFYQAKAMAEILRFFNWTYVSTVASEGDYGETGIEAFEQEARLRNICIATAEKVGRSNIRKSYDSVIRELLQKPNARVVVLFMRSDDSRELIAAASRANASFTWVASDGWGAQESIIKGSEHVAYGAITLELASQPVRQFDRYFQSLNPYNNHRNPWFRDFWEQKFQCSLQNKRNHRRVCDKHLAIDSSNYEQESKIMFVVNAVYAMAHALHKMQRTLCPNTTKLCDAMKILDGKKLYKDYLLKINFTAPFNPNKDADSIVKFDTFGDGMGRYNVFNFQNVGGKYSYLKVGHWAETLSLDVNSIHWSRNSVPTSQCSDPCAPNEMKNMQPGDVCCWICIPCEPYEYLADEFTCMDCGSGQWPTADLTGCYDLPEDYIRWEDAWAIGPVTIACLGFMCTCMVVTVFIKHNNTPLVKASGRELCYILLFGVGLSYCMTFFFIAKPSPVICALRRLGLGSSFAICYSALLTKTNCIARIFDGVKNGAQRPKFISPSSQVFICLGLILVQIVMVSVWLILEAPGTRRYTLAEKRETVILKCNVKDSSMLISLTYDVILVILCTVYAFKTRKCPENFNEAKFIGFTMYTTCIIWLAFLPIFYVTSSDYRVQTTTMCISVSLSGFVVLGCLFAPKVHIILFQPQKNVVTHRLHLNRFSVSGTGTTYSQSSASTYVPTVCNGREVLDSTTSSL

[11] = biological target: Metabotropic glutamate receptor 7 (Homo sapiens) (UniProt Q14831); assay: Inhibition of mGlu7 receptor at 10 uM
Chain of Metabotropic glutamate receptor 7 (Homo sapiens) (Q14831 whole entry): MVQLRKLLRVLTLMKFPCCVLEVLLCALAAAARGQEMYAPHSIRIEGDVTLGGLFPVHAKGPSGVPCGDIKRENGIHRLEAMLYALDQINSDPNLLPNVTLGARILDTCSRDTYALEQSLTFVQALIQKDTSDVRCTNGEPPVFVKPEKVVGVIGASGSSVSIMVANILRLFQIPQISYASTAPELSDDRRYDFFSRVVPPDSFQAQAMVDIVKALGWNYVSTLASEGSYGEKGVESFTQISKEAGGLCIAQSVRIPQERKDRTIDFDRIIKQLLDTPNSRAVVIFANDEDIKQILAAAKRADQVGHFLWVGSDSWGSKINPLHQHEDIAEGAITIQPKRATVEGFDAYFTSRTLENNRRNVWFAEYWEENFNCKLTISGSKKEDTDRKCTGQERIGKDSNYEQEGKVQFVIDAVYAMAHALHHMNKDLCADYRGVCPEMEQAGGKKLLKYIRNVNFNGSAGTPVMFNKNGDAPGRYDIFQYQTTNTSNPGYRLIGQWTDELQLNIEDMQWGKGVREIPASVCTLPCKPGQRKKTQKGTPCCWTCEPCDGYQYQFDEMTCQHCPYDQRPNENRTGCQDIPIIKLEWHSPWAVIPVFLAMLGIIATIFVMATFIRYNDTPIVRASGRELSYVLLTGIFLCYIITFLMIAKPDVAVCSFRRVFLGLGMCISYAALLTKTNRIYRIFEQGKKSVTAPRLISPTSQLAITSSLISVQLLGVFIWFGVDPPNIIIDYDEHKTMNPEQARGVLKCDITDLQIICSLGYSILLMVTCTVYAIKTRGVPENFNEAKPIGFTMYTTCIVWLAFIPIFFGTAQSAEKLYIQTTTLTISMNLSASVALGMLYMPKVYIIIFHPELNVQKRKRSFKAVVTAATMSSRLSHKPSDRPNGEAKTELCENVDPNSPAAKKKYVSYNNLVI

[12] = biological target: Metabotropic glutamate receptor 8 (Homo sapiens) (UniProt O00222); assay: Inhibition of mGlu8 receptor at 10 uM
Chain of Metabotropic glutamate receptor 8 (Homo sapiens) (O00222 whole entry): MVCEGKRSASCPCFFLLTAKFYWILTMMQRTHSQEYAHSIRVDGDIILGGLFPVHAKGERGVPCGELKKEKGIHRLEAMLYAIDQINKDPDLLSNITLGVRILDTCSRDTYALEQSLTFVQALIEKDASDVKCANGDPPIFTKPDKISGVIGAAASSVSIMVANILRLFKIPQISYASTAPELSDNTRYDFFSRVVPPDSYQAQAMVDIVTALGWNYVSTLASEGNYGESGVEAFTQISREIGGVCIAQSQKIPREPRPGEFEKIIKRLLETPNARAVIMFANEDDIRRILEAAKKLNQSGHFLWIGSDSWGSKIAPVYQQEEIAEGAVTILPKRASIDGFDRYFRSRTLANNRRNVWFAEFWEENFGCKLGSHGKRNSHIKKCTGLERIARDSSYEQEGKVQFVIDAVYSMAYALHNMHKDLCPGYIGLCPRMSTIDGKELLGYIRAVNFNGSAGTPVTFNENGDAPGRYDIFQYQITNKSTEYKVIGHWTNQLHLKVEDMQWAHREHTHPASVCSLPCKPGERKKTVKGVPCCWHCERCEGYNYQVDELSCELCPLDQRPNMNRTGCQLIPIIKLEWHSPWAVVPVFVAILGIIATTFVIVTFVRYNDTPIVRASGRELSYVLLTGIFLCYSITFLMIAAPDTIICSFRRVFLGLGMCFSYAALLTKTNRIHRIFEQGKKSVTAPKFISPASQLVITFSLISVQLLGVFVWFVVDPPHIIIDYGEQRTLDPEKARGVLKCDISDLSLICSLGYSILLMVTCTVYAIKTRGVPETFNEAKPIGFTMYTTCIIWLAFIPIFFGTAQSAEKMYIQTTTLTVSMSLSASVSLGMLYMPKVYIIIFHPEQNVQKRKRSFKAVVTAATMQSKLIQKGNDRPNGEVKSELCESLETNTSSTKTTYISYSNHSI

[13] = biological target: Metabotropic glutamate receptor 4 (Homo sapiens) (UniProt Q14833); assay: Inhibition of mGlu4 receptor at 10 uM
Chain of Metabotropic glutamate receptor 4 (Homo sapiens) (Q14833 whole entry): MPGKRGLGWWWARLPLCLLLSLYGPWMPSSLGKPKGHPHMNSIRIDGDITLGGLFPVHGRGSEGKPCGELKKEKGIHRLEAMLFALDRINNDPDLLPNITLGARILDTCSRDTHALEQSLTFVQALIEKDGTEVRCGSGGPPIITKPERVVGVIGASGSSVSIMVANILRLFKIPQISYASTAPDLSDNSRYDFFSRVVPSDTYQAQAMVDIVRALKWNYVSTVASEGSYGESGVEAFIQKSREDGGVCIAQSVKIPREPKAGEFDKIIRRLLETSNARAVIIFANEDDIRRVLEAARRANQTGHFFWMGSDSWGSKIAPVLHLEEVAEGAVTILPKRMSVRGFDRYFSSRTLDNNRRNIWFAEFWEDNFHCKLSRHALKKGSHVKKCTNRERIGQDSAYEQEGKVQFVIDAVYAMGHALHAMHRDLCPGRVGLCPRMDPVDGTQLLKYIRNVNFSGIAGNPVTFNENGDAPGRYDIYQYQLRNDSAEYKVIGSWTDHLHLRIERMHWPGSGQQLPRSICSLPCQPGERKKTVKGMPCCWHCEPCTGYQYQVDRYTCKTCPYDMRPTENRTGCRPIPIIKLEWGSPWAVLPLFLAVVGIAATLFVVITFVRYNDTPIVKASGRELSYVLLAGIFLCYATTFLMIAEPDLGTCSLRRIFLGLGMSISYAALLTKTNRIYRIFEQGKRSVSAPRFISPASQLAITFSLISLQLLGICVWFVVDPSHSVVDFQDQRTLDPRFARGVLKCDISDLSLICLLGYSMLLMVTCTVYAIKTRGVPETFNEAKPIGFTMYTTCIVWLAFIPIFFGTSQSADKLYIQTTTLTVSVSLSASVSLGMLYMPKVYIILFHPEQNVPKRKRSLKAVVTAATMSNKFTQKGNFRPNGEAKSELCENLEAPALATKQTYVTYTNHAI

[14] = Cmax in Sprague-Dawley rat brain at 10 mg/kg, ip after 0.25 to 4 hrs; format: ADME, organism-based; parameters: dose 10 mg/kg, route intraperitoneal
Plasma [15] = assay: Cmax in Sprague-Dawley rat plasma at 10 mg/kg, ip after 0.25 to 4 hrs; format: ADME, organism-based; parameters: dose 10 mg/kg, route intraperitoneal; settings: in vivo
Brain = assay: Tmax in Sprague-Dawley rat brain at 10 mg/kg, ip after 0.25 to 4 hrs; format: ADME, organism-based; parameters: dose 10 mg/kg, route intraperitoneal; settings: in vivo
[16] = AUC (0-4 hrs) in Sprague-Dawley rat brain at 10 mg/kg, ip; format: ADME, organism-based; parameters: time < 4 hr, dose 10 mg/kg, route intraperitoneal
[17] = Ratio of drug level brain to plasma in Sprague-Dawley rat at 10 mg/kg, ip; format: ADME, organism-based; parameters: dose 10 mg/kg, route intraperitoneal; settings: brain and plasma
Plasma [18] = assay: Tmax in Sprague-Dawley rat plasma at 10 mg/kg, ip after 0.25 to 4 hrs; format: ADME, organism-based; parameters: dose 10 mg/kg, route intraperitoneal; settings: in vivo
[19] = AUC (0-4 hrs) in Sprague-Dawley rat plasma at 10 mg/kg, ip; format: ADME, organism-based; parameters: time < 4 hr, dose 10 mg/kg, route intraperitoneal

N#Cc1cc(F)cc(C(=O)Nc2nc(C3CC3)cs2)c1
IC50 [1]: 900 nM
%max [2]: 1.5%

N#Cc1cccc(NC(=O)c2cc(F)cc(C#N)c2)c1
IC50 [1]: 489 nM
%max [2]: 1.4%

N#Cc1cc(F)cc(C(=O)Nc2cc(Cl)ccc2F)c1
IC50 [1]: 3780 nM
%max [2]: 29.8%

N#Cc1cc(F)cc(C(=O)Nc2ccc(F)c(Cl)c2)c1
IC50 [1]: 377 nM
%max [2]: 43%

N#Cc1cc(F)cc(C(=O)Nc2cc(F)cc(Cl)c2)c1
IC50 [1]: 1830 nM
%max [2]: 38.5%

Cc1nc(NC(=O)c2cc(F)cc(C#N)c2)sc1C
IC50 [1]: 594 nM
%max [2]: 2.4%

N#Cc1cc(F)cc(C(=O)Nc2ccccc2F)c1
IC50 [1]: > 30000 nM

N#Cc1cc(F)cc(C(=O)Nc2cccc(C(F)(F)F)c2)c1
IC50 [1]: 543 nM
%max [2]: 0.9%

COc1cccc(NC(=O)c2cc(F)cc(C#N)c2)n1
IC50 [1]: 1510 nM
%max [2]: 17.3%

Cc1cccc(NC(=O)c2cc(F)cc(C#N)c2)c1
remaining at 0.25 h, 1 µM [3]: 69.7%
Ki [4]: 100 nM
inhibition [5]: inactive
inhibition [6]: inactive
PPB (Plasma [7]): 98.3%
remaining at 0.25 h, 1 µM [8]: 19.5%
IC50 [1]: 122 nM
%max [2]: 2.1%
PPB (Plasma [9]): 95.3%
inhibition [10]: inactive
inhibition [11]: inactive
inhibition [12]: inactive
inhibition [13]: inactive

CS(=O)(=O)c1cccc(NC(=O)c2cc(F)cc(C#N)c2)c1
IC50 [1]: > 30000 nM

CCc1cccc(NC(=O)c2cc(F)cc(C#N)c2)c1
IC50 [1]: 4940 nM
%max [2]: 2.4%

N#Cc1cc(F)cc(C(=O)Nc2ccccc2Cl)c1
IC50 [1]: > 30000 nM

Cc1cnc(NC(=O)c2cc(F)cc(C#N)c2)s1
IC50 [1]: 863 nM
%max [2]: 17.5%

N#Cc1cc(F)cc(C(=O)Nc2ccc(F)cc2)c1
IC50 [1]: > 10000 nM
%max [2]: 69.2%

Cc1ccc(NC(=O)c2cc(F)cc(C#N)c2)cc1
IC50 [1]: > 30000 nM

N#Cc1cc(F)cc(C(=O)Nc2ccncc2)c1
IC50 [1]: > 30000 nM

N#Cc1cc(F)cc(C(=O)Nc2ccc(Cl)cc2)c1
IC50 [1]: > 30000 nM

CC(C)(C)c1cccc(NC(=O)c2cc(F)cc(C#N)c2)c1
IC50 [1]: > 30000 nM

Cc1cccnc1NC(=O)c1cc(F)cc(C#N)c1
IC50 [1]: > 30000 nM

Cc1csc(NC(=O)c2cc(F)cc(C#N)c2)n1
remaining at 0.25 h, 1 µM [3]: 89.9%
Ki [4]: 102 nM
inhibition [5]: inactive
Cmax [14]: 28800 ng/mL
inhibition [6]: inactive
PPB (Plasma [7]): 98.4%
remaining at 0.25 h, 1 µM [8]: 70.3%
Cmax (Plasma [15]): 7650 ng/mL
Tmax (Brain): 15 min
IC50 [1]: 59 nM
AUC(0-t) at 4 h [16]: 73000 ng·h/mL
%max [2]: 1%
Kp [17]: 4.1
PPB (Plasma [9]): 92.4%
inhibition [10]: inactive
inhibition [11]: inactive
Tmax (Plasma [18]): 15 min
inhibition [12]: inactive
inhibition [13]: inactive
AUC(0-t) at 4 h [19]: 17800 ng·h/mL

COc1ccccc1NC(=O)c1cc(F)cc(C#N)c1
IC50 [1]: > 30000 nM

COc1cccc(NC(=O)c2cc(F)cc(C#N)c2)c1
IC50 [1]: > 10000 nM
%max [2]: 35.5%

N#Cc1cc(F)cc(C(=O)Nc2cccc(C(F)(F)F)n2)c1
IC50 [1]: > 10000 nM
%max [2]: 19.6%

Cc1ccnc(NC(=O)c2cc(F)cc(C#N)c2)c1
IC50 [1]: > 10000 nM
%max [2]: 38.6%

N#Cc1cc(F)cc(C(=O)NC2C3CC4CC(C3)CC2C4)c1 (stereo unspecified)
IC50 [1]: > 10000 nM
%max [2]: 34.7%

N#Cc1cc(F)cc(C(=O)Nc2cccnc2)c1
IC50 [1]: > 30000 nM

Cc1ccccc1NC(=O)c1cc(F)cc(C#N)c1
IC50 [1]: > 30000 nM

N#Cc1cc(F)cc(C(=O)Nc2cccc(Cl)c2)c1
remaining at 0.25 h, 1 µM [3]: 96.8%
Ki [4]: 206 nM
inhibition [5]: inactive
Cmax [14]: 1090 ng/mL
inhibition [6]: inactive
PPB (Plasma [7]): 97.1%
remaining at 0.25 h, 1 µM [8]: 18%
Cmax (Plasma [15]): 970 ng/mL
Tmax (Brain): 15 min
IC50 [1]: 45 nM
AUC(0-t) at 4 h [16]: 1710 ng·h/mL
%max [2]: 0.6%
Kp [17]: 1.4
PPB (Plasma [9]): 93.7%
inhibition [10]: inactive
inhibition [11]: inactive
Tmax (Plasma [18]): 15 min
inhibition [12]: inactive
inhibition [13]: inactive
AUC(0-t) at 4 h [19]: 1200 ng·h/mL

CCc1cccc(NC(=O)c2cc(F)cc(C#N)c2)n1
IC50 [1]: 505 nM
%max [2]: 1.7%

N#Cc1cc(F)cc(C(=O)NC2CCCCC2)c1
IC50 [1]: > 30000 nM

C#Cc1cccc(NC(=O)c2cc(F)cc(C#N)c2)c1
IC50 [1]: 331 nM
%max [2]: 2.3%

Cc1cccc(NC(=O)c2cc(F)cc(C#N)c2)n1
remaining at 0.25 h, 1 µM [3]: 46.5%
Ki [4]: 157 nM
inhibition [5]: inactive
inhibition [6]: inactive
PPB (Plasma [7]): 89.9%
remaining at 0.25 h, 1 µM [8]: 7%
IC50 [1]: 65 nM
%max [2]: 1.2%
PPB (Plasma [9]): 84%
inhibition [10]: inactive
inhibition [11]: inactive
inhibition [12]: inactive
inhibition [13]: inactive

N#Cc1cc(F)cc(C(=O)Nc2ccccc2)c1
IC50 [1]: 5440 nM
%max [2]: 12.5%

N#Cc1cc(F)cc(C(=O)Nc2cccc(F)c2)c1
IC50 [1]: 2160 nM
%max [2]: 22.1%

N#Cc1cc(F)cc(C(=O)Nc2cccc(Cl)n2)c1
IC50 [1]: 250 nM
%max [2]: 2.2%

CC(C)(C)c1csc(NC(=O)c2cc(F)cc(C#N)c2)n1
IC50 [1]: > 10000 nM
%max [2]: 29.7%

N#Cc1cc(F)cc(C(=O)Nc2ccccn2)c1
IC50 [1]: 3010 nM
%max [2]: 5.4%

COc1ccc(NC(=O)c2cc(F)cc(C#N)c2)cc1
IC50 [1]: > 30000 nM

Cn1ccc(NC(=O)c2cc(F)cc(C#N)c2)n1
IC50 [1]: > 10000 nM
%max [2]: 46.7%

N#Cc1cc(F)cc(C(=O)Nc2ccon2)c1
IC50 [1]: > 30000 nM

N#Cc1cc(F)cc(C(=O)Nc2nccs2)c1
IC50 [1]: > 10000 nM
%max [2]: 37.4%

Cc1cc(C)nc(NC(=O)c2cc(F)cc(C#N)c2)c1
IC50 [1]: > 30000 nM

N#Cc1cc(F)cc(C(=O)Nc2cccc(Cl)c2F)c1
IC50 [1]: 347 nM
%max [2]: 2.5%
